{"source": "patent US11970473B2", "about": "“Nootkatone derivatives and methods of using the same” (Arkansas State University—Jonesboro, priority 2021, dated 2024)", "test_in_all_cases": "NCI-60 cancer screen", "type_in_all_cases": "cell-based, human", "key": {"K-562": {"tested_on": "K-562", "conditions": "K-562, Leukemia; 10 μM"}, "MOLT-4": {"tested_on": "MOLT-4", "conditions": "MOLT-4, Leukemia; 10 μM"}, "SR": {"tested_on": "SR", "conditions": "Leukemia, 10 μM"}, "A549/ATCC": {"tested_on": "A549/ATCC", "conditions": "Non-Small Cell Lung Cancer, 10 μM"}, "HOP-62": {"tested_on": "HOP-62", "conditions": "HOP-62, Non-Small Cell Lung Cancer; 10 μM"}, "NCI-H226": {"tested_on": "NCI-H226", "conditions": "NCI-H226, Non-Small Cell Lung Cancer; 10 μM"}, "NCI-H23": {"tested_on": "NCI-H23", "conditions": "NCI-H23, Non-Small Cell Lung Cancer; 10 μM"}, "NCI-H460": {"tested_on": "NCI-H460", "conditions": "NCI-H460, Non-Small Cell Lung Cancer; 10 μM"}, "NCI-H522": {"tested_on": "NCI-H522", "conditions": "NCI-H522, Non-Small Cell Lung Cancer; 10 μM"}, "COLO 205": {"tested_on": "COLO 205", "conditions": "COLO 205, Colon Cancer; 10 μM"}, "HCC-2998": {"tested_on": "HCC-2998", "conditions": "HCC-2998, Colon Cancer; 10 μM"}, "HCT-116": {"tested_on": "HCT-116", "conditions": "HCT-116, Colon Cancer; 10 μM"}, "HCT-15": {"tested_on": "HCT-15", "conditions": "HCT-15, Colon Cancer; 10 μM"}, "HT29": {"tested_on": "HT29", "conditions": "HT29, Colon Cancer; 10 μM"}, "SF-539": {"tested_on": "SF-539", "conditions": "SF-539, CNS Cancer; 10 μM"}, "SNB-19": {"tested_on": "SNB-19", "conditions": "SNB-19, CNS Cancer; 10 μM"}, "U251": {"tested_on": "U251", "conditions": "U251, CNS Cancer; 10 μM"}, "LOX IMVI": {"tested_on": "LOX IMVI", "conditions": "Melanoma, 10 μM"}, "M14": {"tested_on": "M14", "conditions": "M14, Melanoma; 10 μM"}, "SK-MEL-2": {"tested_on": "SK-MEL-2", "conditions": "SK-MEL-2, Melanoma; 10 μM"}, "SK-MEL-5": {"tested_on": "SK-MEL-5", "conditions": "SK-MEL-5, Melanoma; 10 μM"}, "UACC-257": {"tested_on": "UACC-257", "conditions": "UACC-257, Melanoma; 10 μM"}, "UACC-62": {"tested_on": "UACC-62", "conditions": "UACC-62, Melanoma; 10 μM"}, "IGROV1": {"tested_on": "IGROV1", "conditions": "IGROV1, Ovarian Cancer; 10 μM"}, "OVCAR-3": {"tested_on": "OVCAR-3", "conditions": "OVCAR-3, Ovarian Cancer; 10 μM"}, "OVCAR-4": {"tested_on": "OVCAR-4", "conditions": "OVCAR-4, Ovarian Cancer; 10 μM"}, "OVCAR-5": {"tested_on": "OVCAR-5", "conditions": "OVCAR-5, Ovarian Cancer; 10 μM"}, "OVCAR-8": {"tested_on": "OVCAR-8", "conditions": "OVCAR-8, Ovarian Cancer; 10 μM"}, "NCI/ADR-RES": {"tested_on": "NCI/ADR-RES", "conditions": "Ovarian Cancer, 10 μM"}, "SK-OV-3": {"tested_on": "SK-OV-3", "conditions": "SK-OV-3, Ovarian Cancer; 10 μM"}, "A498": {"tested_on": "A498", "conditions": "A498, Renal Cancer; 10 μM"}, "RXF 393": {"tested_on": "RXF 393", "conditions": "RXF 393, Renal Cancer; 10 μM"}, "SN12C": {"tested_on": "SN12C", "conditions": "Renal Cancer, 10 μM"}, "UO-31": {"tested_on": "UO-31", "conditions": "UO-31, Renal Cancer; 10 μM"}, "PC-3": {"tested_on": "PC-3", "conditions": "PC-3, Prostate Cancer; 10 μM"}, "DU-145": {"tested_on": "DU-145", "conditions": "DU-145, Prostate Cancer; 10 μM"}, "MDA-MB-231/ATCC": {"tested_on": "MDA-MB-231/ATCC", "conditions": "Breast Cancer, 10 μM"}, "HS 578T": {"tested_on": "HS 578T", "conditions": "Breast Cancer, 10 μM"}, "BT-549": {"tested_on": "BT-549", "conditions": "BT-549, Breast Cancer; 10 μM"}, "T-47D": {"tested_on": "T-47D", "conditions": "Breast Cancer, 10 μM"}, "MDA-MB-468": {"tested_on": "MDA-MB-468", "conditions": "MDA-MB-468, Breast Cancer; 10 μM"}}}
{"smiles": "C=C(C)[C@@H]1CC=C2c3sc(-c4ccc(O)cc4)nc3C[C@@H](C)[C@]2(C)C1", "note": "[Compound 15, 4-[(5R,5aS,7R)-7-isopropenyl-5,5a-dimethyl-5,6,7,8-tetrahydro-4H-benzo[g][1,3]benzothiazol-2-yl]phenol]", "values": [{"measurement": "Growth Percent", "setting": "K-562", "result": 92.07, "unit": "%"}, {"measurement": "Growth Percent", "setting": "MOLT-4", "result": 105.32, "unit": "%"}, {"measurement": "Growth Percent", "setting": "SR", "result": 113.66, "unit": "%"}, {"measurement": "Growth Percent", "setting": "A549/ATCC", "result": 95.55, "unit": "%"}, {"measurement": "Growth Percent", "setting": "HOP-62", "result": 95.96, "unit": "%"}, {"measurement": "Growth Percent", "setting": "NCI-H226", "result": 94.10, "unit": "%"}, {"measurement": "Growth Percent", "setting": "NCI-H23", "result": 94.71, "unit": "%"}, {"measurement": "Growth Percent", "setting": "NCI-H460", "result": 104.69, "unit": "%"}, {"measurement": "Growth Percent", "setting": "NCI-H522", "result": 92.28, "unit": "%"}, {"measurement": "Growth Percent", "setting": "COLO 205", "result": 118.41, "unit": "%"}, {"measurement": "Growth Percent", "setting": "HCC-2998", "result": 100.46, "unit": "%"}, {"measurement": "Growth Percent", "setting": "HCT-116", "result": 114.01, "unit": "%"}, {"measurement": "Growth Percent", "setting": "HCT-15", "result": 100.28, "unit": "%"}, {"measurement": "Growth Percent", "setting": "HT29", "result": 105.86, "unit": "%"}, {"measurement": "Growth Percent", "setting": "SF-539", "result": 101.06, "unit": "%"}, {"measurement": "Growth Percent", "setting": "SNB-19", "result": 93.47, "unit": "%"}, {"measurement": "Growth Percent", "setting": "U251", "result": 102.73, "unit": "%"}, {"measurement": "Growth Percent", "setting": "LOX IMVI", "result": 101.88, "unit": "%"}, {"measurement": "Growth Percent", "setting": "M14", "result": 98.96, "unit": "%"}, {"measurement": "Growth Percent", "setting": "SK-MEL-2", "result": 104.08, "unit": "%"}, {"measurement": "Growth Percent", "setting": "SK-MEL-5", "result": 99.11, "unit": "%"}, {"measurement": "Growth Percent", "setting": "UACC-257", "result": 100.07, "unit": "%"}, {"measurement": "Growth Percent", "setting": "UACC-62", "result": 93.02, "unit": "%"}, {"measurement": "Growth Percent", "setting": "IGROV1", "result": 102.22, "unit": "%"}, {"measurement": "Growth Percent", "setting": "OVCAR-3", "result": 102.89, "unit": "%"}, {"measurement": "Growth Percent", "setting": "OVCAR-4", "result": 95.29, "unit": "%"}, {"measurement": "Growth Percent", "setting": "OVCAR-5", "result": 106.63, "unit": "%"}, {"measurement": "Growth Percent", "setting": "OVCAR-8", "result": 98.85, "unit": "%"}, {"measurement": "Growth Percent", "setting": "NCI/ADR-RES", "result": 105.66, "unit": "%"}, {"measurement": "Growth Percent", "setting": "SK-OV-3", "result": 109.13, "unit": "%"}, {"measurement": "Growth Percent", "setting": "A498", "result": 107.24, "unit": "%"}, {"measurement": "Growth Percent", "setting": "RXF 393", "result": 113.93, "unit": "%"}, {"measurement": "Growth Percent", "setting": "SN12C", "result": 94.92, "unit": "%"}, {"measurement": "Growth Percent", "setting": "UO-31", "result": 88.19, "unit": "%"}, {"measurement": "Growth Percent", "setting": "PC-3", "result": 94.38, "unit": "%"}, {"measurement": "Growth Percent", "setting": "DU-145", "result": 104.97, "unit": "%"}, {"measurement": "Growth Percent", "setting": "MDA-MB-231/ATCC", "result": 101.25, "unit": "%"}, {"measurement": "Growth Percent", "setting": "HS 578T", "result": 100.94, "unit": "%"}, {"measurement": "Growth Percent", "setting": "BT-549", "result": 115.53, "unit": "%"}, {"measurement": "Growth Percent", "setting": "T-47D", "result": 84.40, "unit": "%"}, {"measurement": "Growth Percent", "setting": "MDA-MB-468", "result": 102.12, "unit": "%"}]}
